Article PMC7734281, “Functionalized Oxoindolin Hydrazine Carbothioamide Derivatives as Highly Potent Inhibitors of Nucleoside Triphosphate Diphosphohydrolases” (Frontiers in Pharmacology, 2020)

Assays:
Type in all cases: biochemical
[1] = biological target: T1, h-NTPDase8 (Homo sapiens, UniProt Q5MY95); assay: h-NTPDase8 inhibition, malachite green assay; conditions: for inhibition at 100 µM: compound 100 µM; for IC50: ATP 100 µM substrate, mean ± SEM of three independent experiments
T1 construct: made in house; host or cells: COS-7 cells, transient transfection; crude protein extract after sonication
T1 sequence (Q5MY95 1-495): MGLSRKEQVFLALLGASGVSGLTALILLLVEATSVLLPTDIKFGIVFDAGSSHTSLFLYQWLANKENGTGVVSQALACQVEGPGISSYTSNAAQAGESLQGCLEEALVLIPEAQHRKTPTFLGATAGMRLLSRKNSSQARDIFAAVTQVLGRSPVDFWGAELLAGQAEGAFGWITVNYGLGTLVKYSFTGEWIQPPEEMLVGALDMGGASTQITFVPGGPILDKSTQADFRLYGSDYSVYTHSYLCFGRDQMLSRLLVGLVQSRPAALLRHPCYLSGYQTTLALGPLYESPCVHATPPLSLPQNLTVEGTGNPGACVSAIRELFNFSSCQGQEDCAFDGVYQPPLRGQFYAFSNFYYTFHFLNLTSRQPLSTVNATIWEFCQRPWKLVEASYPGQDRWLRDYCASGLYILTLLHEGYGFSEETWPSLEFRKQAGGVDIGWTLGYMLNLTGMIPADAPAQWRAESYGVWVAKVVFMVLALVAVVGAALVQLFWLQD
Description: (§1) COS-7 cells were transfected with plasmids expressing human or mouse NTPDases1, -2, -3, and -8 as previously described ([Levesque et al., 2007]; [Lecka et al., 2014]) Briefly, the confluent cells were transferred to Dulbecco’s Modified Eagle’s Medium containing no fetal bovine serum. Then, these cells were incubated with plasmid DNA (6 µg) and Lipofectamine reagent (24 µl) at 37°C. After 5 h, transfection was terminated with the addition of an equal volume of DMEM/F-12 (supplemented with 20% FBS) and cells were collected by harvesting after 40–72 h.
(§2) To prepare protein extracts, transfected COS-7 cells were washed three times with tris-saline buffer while temperature was maintained at 4°C. Then cells were scraped and resuspended in harvesting buffer containing 95 mM NaCl, 45 mM tris and 0.1 mM phenylmethylsulfonyl fluoride (pH 7.5). Cells were again washed twice by centrifugation for 5 min at 300 × g at 4°C and then resuspended in harvesting buffer (supplemented with 10 μg ml aprotinin). Following sonication, cellular debris was isolated by 10 min centrifugation at 300 g at 4°C. Subsequently, supernatant was removed very carefully and protein concentration was determined by using Bradford microplate assay while using the bovine serum albumin as a standard ([Bradford, 1976]).
(§3) The inhibitory effects of synthesized compounds on h-NTPDase1, -2, -3, and -8 were determined as described previously, although with slight modifications ([Martín-Satué et al., 2009]). Assay was conducted in a reaction medium containing 50 mM tris-HCl and 5 mM CaCl2 (pH 7.4). All the test compounds were dissolved in dimethyl sulfoxide (DMSO, 10%) and initially screened at a concentration of 100 µM. A reaction mixture containing 55 µl of assay buffer, 10 µl of test compound solution and 10 µl of h-NTPDase1 (58 ng/well) or h-NTPDase2 (79 ng/well) or h-NTPDase3 (163 ng/well) or h-NTPDase8 (66 ng/well) was incubated at 37°C for 10 min. Following the incubation, a 10 µl solution of adenosine triphosphate (ATP, 100 µm) was added as substrate and reaction mixture was again incubated for 15 min at 37°C. The reaction was stopped by adding malachite green reagent (15 µl) and placed at room temperature for 4 to 6 min. Finally, absorbance was measured at 630 nm by using Omega FLUOstar microplate reader (BMG Labtech, Ortenberg, Germany) and % inhibitions were calculated. For compounds showing more than 50% inhibition of any isozyme, dose response curves were generated and their IC50 values were determined. Three separate enzyme inhibition assays were carried out in triplicate and dose-response curve were generated by using PRISM 5.0 (GraphPad, San Diego, United States).

[2] = biological target: T2, h-NTPDase2 (Homo sapiens, UniProt Q9Y5L3); assay: h-NTPDase2 inhibition, malachite green assay; conditions: for inhibition at 100 µM: compound 100 µM; for IC50: ATP 100 µM substrate, mean ± SEM of three independent experiments
T2 construct: made in house; host or cells: COS-7 cells, transient transfection; crude protein extract after sonication
T2 sequence (Q9Y5L3 1-495): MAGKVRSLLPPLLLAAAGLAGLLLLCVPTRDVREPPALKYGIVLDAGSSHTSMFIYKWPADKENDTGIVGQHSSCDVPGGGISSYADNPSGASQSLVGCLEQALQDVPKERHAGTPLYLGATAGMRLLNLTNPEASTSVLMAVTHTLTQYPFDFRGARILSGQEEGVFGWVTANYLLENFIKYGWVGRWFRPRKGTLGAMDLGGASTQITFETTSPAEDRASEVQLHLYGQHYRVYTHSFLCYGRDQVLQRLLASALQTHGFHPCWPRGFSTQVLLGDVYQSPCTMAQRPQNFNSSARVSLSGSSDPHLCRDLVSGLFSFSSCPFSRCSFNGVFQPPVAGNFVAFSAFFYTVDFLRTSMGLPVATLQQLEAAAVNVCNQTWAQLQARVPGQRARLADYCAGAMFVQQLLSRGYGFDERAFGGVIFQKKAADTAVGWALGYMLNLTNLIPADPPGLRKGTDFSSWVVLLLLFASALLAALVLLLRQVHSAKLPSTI
Description: as §1, §2, §3

[3] = biological target: T3, m-NTPDase8 (Mus musculus, UniProt Q8K0L2); assay: m-NTPDase8 inhibition, malachite green assay; conditions: for inhibition at 100 µM: compound 100 µM; for IC50: mean ± SEM of three independent experiments
T3 construct: made in house; host or cells: COS-7 cells, transient transfection; crude protein extract after sonication
T3 sequence (Q8K0L2 1-497): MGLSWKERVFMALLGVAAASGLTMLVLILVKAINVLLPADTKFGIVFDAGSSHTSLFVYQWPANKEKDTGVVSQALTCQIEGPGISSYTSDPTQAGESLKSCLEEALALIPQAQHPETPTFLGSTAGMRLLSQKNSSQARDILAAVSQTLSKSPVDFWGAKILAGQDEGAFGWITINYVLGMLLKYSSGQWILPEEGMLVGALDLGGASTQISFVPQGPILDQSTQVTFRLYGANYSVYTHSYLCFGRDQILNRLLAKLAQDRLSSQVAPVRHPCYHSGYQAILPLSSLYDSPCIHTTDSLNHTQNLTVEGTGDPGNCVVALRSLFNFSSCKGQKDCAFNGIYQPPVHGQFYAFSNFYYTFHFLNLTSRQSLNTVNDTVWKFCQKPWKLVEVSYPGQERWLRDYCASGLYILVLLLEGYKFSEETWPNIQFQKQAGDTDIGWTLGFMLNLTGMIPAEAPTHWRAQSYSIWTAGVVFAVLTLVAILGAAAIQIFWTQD
Description: as §1, §2, §3
Same procedure was adopted to determine the inhibitory effects of compounds on mouse NTPDases (m-NTPDases). However, the amount of protein used was as follows: m-NTPDase1 (82 ng/well), m-NTPDase2 (57 ng/well), m-NTPDase3 (110 ng/well) and m-NTPDase8 (79 ng/well)

Row | Structure (SMILES) | inhibition at 100 µM [1] [%] | inhibition at 100 µM [2] [%] | inhibition at 100 µM [3] [%] | Ki [1] [µM] | IC50 [1] [µM] | Ki [3] [µM] | IC50 [3] [µM] | Ki [2] [µM] | IC50 [2] [µM]
1 | O=C1Nc2ccccc2/C1=N/NC(=S)Nc1ccccc1 [8a, (Z)-2-(2-oxoindolin-3-ylidene)-N-phenylhydrazine-1-carbothioamide] | 24 | 24 | 28 |  |  |  |  |  | 
2 | O=C1Nc2ccccc2/C1=N/NC(=S)Nc1ccc(Cl)cc1 [8c, (Z)-N-(4-chlorophenyl)-2-(2-oxoindolin-3-ylidene)hydrazine-1-carbothioamide] |  | 46 | 36 | 0.11 | 0.24 ± 0.02 |  |  |  | 
3 | O=C1Nc2ccccc2/C1=N/NC(=S)Nc1ccc(F)cc1 [8d, (Z)-N-(4-fluorophenyl)-2-(2-oxoindolin-3-ylidene)hydrazine-1-carbothioamide] | 33 | 48 |  |  |  | 0.17 | 1.45 ± 0.12 |  | 
4 | O=C1Nc2ccccc2/C1=N/NC(=S)NCc1ccccc1 [8f, (Z)-N-benzyl-2-(2-oxoindolin-3-ylidene)hydrazine-1-carbothioamide] | < 50 | < 50 | 38 |  |  |  |  |  | 
5 | O=C1Nc2ccccc2/C1=N/NC(=S)Nc1c(F)cccc1F [8l, (Z)-N-(2,6-difluorophenyl)-2-(2-oxoindolin-3-ylidene)hydrazine-1-carbothioamide] | < 50 | < 50 | 13 |  |  |  |  |  | 
6 | CCNC(=S)N/N=C1\C(=O)Nc2ccccc21 [8m, (Z)-N-ethyl-2-(2-oxoindolin-3-ylidene)hydrazine-1-carbothioamide] | 38 | 42 | 35 |  |  |  |  |  | 

More lines, now with the values ahead:

Row | inhibition at 100 µM [1] [%] | inhibition at 100 µM [2] [%] | inhibition at 100 µM [3] [%] | Ki [1] [µM] | IC50 [1] [µM] | Ki [3] [µM] | IC50 [3] [µM] | Ki [2] [µM] | IC50 [2] [µM] | Structure (SMILES)
7 |  |  | 30 |  |  |  |  |  |  | O=C1Nc2ccccc2/C1=N/NC(=S)Nc1ccc([N+](=O)[O-])cc1 [8b, (Z)-N-(4-nitrophenyl)-2-(2-oxoindolin-3-ylidene)hydrazine-1-carbothioamide]
8 |  | < 50 |  |  |  | 0.44 | 3.8 ± 0.21 |  |  | COc1cccc(NC(=S)N/N=C2\C(=O)Nc3ccccc32)c1 [8e, (Z)-N-(3-methoxyphenyl)-2-(2-oxoindolin-3-ylidene)hydrazine-1-carbothioamide]
9 | 7 | 29 | 36 |  |  |  |  |  |  | O=C1Nc2ccccc2/C1=N/NC(=S)Nc1cccc(Cl)c1 [8g, (Z)-N-(3-chlorophenyl)-2-(2-oxoindolin-3-ylidene)hydrazine-1-carbothioamide]
10 | 22 | 17 | 28 |  |  |  |  |  |  | Cc1ccc(NC(=S)N/N=C2\C(=O)Nc3ccccc32)cc1 [8h, (Z)-2-(2-oxoindolin-3-ylidene)-N-(p-tolyl)hydrazine-1-carbothioamide]
11 | 17 |  | 26 |  |  |  |  | 0.17 | 0.41 ± 0.03 | Cc1cccc(C)c1NC(=S)N/N=C1\C(=O)Nc2ccccc21 [8i, (Z)-N-(2,6-dimethylphenyl)-2-(2-oxoindolin-3-ylidene)hydrazine-1-carbothioamide]
12 | 19 |  | 32 |  |  |  |  | 0.04 | 0.11 ± 0.08 | COc1ccc(OC)c(NC(=S)N/N=C2\C(=O)Nc3ccccc32)c1 [8j, (Z)-N-(2,5-dimethoxyphenyl)-2-(2-oxoindolin-3-ylidene)hydrazine-1-carbothioamide]
13 | 46 |  | 24 |  |  |  |  | 0.07 | 0.16 ± 0.01 | COc1ccc(NC(=S)NNC2=c3ccccc3=NC2=O)cc1 [8k, (Z)-N-(4-methoxyphenyl)-2-(2-oxoindolin-3-ylidene)hydrazine-1-carbothioamide]
14 |  |  |  |  | > 100 |  | > 100 | 9.92 | 24.1 ± 3.01 | Cc1ccc(C(=O)Nc2ccc(S(=O)(=O)O)c3cc(S(=O)(=O)O)cc(S(=O)(=O)O)c23)cc1NC(=O)c1cccc(NC(=O)Nc2cccc(C(=O)Nc3cc(C(=O)Nc4ccc(S(=O)(=O)O)c5cc(S(=O)(=O)O)cc(S(=O)(=O)O)c45)ccc3C)c2)c1 [Suramin, reference compound]
